{"source": "paper PMC9048745", "about": "“Physicochemical investigation of a novel curcumin diethyl γ-aminobutyrate, a carbamate ester prodrug of curcumin with enhanced anti-neuroinflammatory activity” (PLoS ONE, 2022)", "key": {"[1]": {"tested_on": "TNF-α release in LPS-stimulated BV-2 microglial cells", "experiment": "TNF-α ELISA", "assay_type": "cell-based, murine", "settings": "10 μM, 12 h pre-incubation, then 1 μg/mL LPS 24 h; compared with curcumin", "experimental": "BV-2 microglial cells were plated in a 24-well plate at a density of 2 × 10^5 per well for 24 h. The cells were pre-incubated for 12 h with curcumin (10 μM), CUR-2GE (10 μM), medium (DMEM), or a vehicle (0.5% DMSO). The cells were then induced with 1 μg/mL LPS for 24 h. The culture medium samples were collected and analyzed for nitric oxide (NO) and cytokines (TNF- and IL-6) using NO and enzyme-linked immunoassay (ELISA) assays, respectively.\nQuantification of TNF-α and IL-6 was performed using commercially available ELISA kits according to the manufacturer’s protocol (BioLegend, San Diego, CA, USA). The absorbance was measured at 450 nm using the microplate reader, and the amount of TNF-α and IL-6 was determined against their corresponding standard curves of TNF-α and IL-6."}, "[2]": {"experiment": "Solubility mimicking gastrointestinal pH, with and without 0.5% SLS; dose number (D0)", "assay_type": "physicochemical", "settings": "for solubility at 1 h: thermodynamic from solid", "experimental": "For solubility mimicking gastrointestinal pH, an excess amount of CUR-2GE (1 mg) was added to a vial containing 2 mL of buffer pH 1.2, 4.5 or 6.8 with and without a surfactant (0.5% SLS). The mixture was sonicated for 1 h before orbital shaking at 37°C at 100 rpm for 1 h. After that, the mixture was centrifuged at 25°C at 14,000 rpm for 10 min prior to UPLC analysis. Experiments were performed in triplicate. The dose number (D0) at different media was determined and the BSC solubility class was assigned. (see S1 Appendix).\nS1 Appendix. Experimental procedures\nThe solubility category was classified according to USP [1] as very soluble (>1000 mg/mL), freely soluble (100-1000 mg/mL), soluble (33-100 mg/mL), sparingly soluble (10-33 mg/mL), slightly soluble (1-10 mg/mL), very slightly soluble (0.1-1 mg/mL) and practically […]\nThe percentage of CUR-2GE in the undissociated form at various pH values were calculated based on Henderson-Hasselbalch using Eq. 1:\n%Undissociated form = 100 - antilog (pH-pKa) x 100 (1)\nWhere pH; pH value of the medium for solubilization, pKa; negative logarithm of the dissociation constant (Ka) of CUR-2GE with computed using the Marvin (Product version: 21.8.0) of ChemAxon (Budapest, Hungary) (http://www.chemaxon.com) accessed on June 2021.\nThe dose number (D0) was calculated to assign the BSC solubility class, the D0 for each pH buffer solution without surfactant was calculated using the following Eq. 2: […]\nWhere M0 is the highest dose strength (mg) of capsule equivalent to curcumin, the adopted dose of CUR-2GE is 927 mg equivalent to curcumin 500 mg dose. V0 is the initial gastric volume (≈250 mL), Cs is the saturation solubility of CUR-2GE in buffer solution without surfactant (mg/mL). Drugs with D0 < 1 in pH 1.2, 4.5 and 6.8 are considered as high solubility drugs. Drugs with D0 > 1 in any of the buffer solutions are classified as low solubility drugs."}, "[3]": {"experiment": "Partition coefficient, shake flask method (OECD 107)", "assay_type": "physicochemical", "settings": "25°C, aqueous phase not detectable, LOQ of 0.05 μg/mL used for calculation", "experimental": "The partition coefficient of CUR-2GE was quantified using the shake flask method according to the guideline of OECD 107 with some modifications. A saturated mixture of n-octanol/water was firstly prepared at 25°C by stirring an equal volume of n-octanol/water for 24 h and left standing until complete separation. A 1 mg of CUR-2GE was dissolved in saturated n-octanol and water at volume ratios of 1:1, 1:2 and 2:1 in screw cap tubes. Experiments were run in duplicate. The tube was shaken through 180° over the transverse axis approximately 100 times in 5 min at room temperature (25°C) to reach equilibrium and phase distribution. The phases were then separated by centrifugation at 25°C at 5,500 rpm for 10 min. […] CUR-2GE concentrations in each phase were analyzed by UPLC, and the Po/w value was determined. In addition to water used as an aqueous phase, the partition coefficient between n-octanol and buffer at pH 4.5 and the Po/buffer pH 4.5 value were determined (see S1 Appendix).\nThe Po/w value and Po/buffer pH 4.5 value were calculated by Eq. 3 and Eq. 4, respectively. The Log Po/w and Log Po/buffer pH 4.5 were evaluated from the average results (n = 6) from three solvent ratios, where the results fall within the range of variation of ± 0.3 units. […]\nThe half-lives (t1/2) of CUR-2GE were calculated by Eq. 6: […]"}, "[4]": {"experiment": "Release study in human plasma at 37°C", "assay_type": "in vitro ADME", "experimental": "The amount of curcumin released from CUR-2GE in human plasma was determined at 37°C at various time points. A stock solution of CUR-2GE (100 μg/mL) in the diluent was prepared and diluted with pre-incubated human plasma at 37°C for 5 min to obtain the final concentration of 5 μg/mL. The mixture was incubated at 37°C for 5, 10, 20, 30 and 60 min and each aliquot (300 μL) was added with 300 μL of acetonitrile to stop the reaction and further centrifugated at 4°C at 14,000 rpm for 30 min. The concentration of CUR-2GE in the supernatant was analyzed using UPLC [19, 26]. Experiments were carried out in triplicates. The initial time point (0 min) was prepared by adding 300 μL acetonitrile to the pre-incubated human plasma. The percent peak area of CUR-2GE and its hydrolytic products was plotted against incubation time. The k and t1/2 values were determined using the linear pseudo-first-order model."}, "[5]": {"settings": "M0 927 mg, V0 250 mL, Cs at 37°C without 0.5% SLS"}}, "note": "Read-outs that look alike come from different tables or passages of the source."}
{"smiles": "CCOC(=O)CCCNC(=O)Oc1ccc(/C=C/C(=O)/C=C(O)/C=C/c2ccc(OC(=O)NCCCC(=O)OCC)c(OC)c2)cc1OC", "note": "[CUR-2GE, Curcumin diethyl γ-aminobutyrate]", "values": [{"measurement": "inhibition of TNF-α release", "setting": "[1]", "result": "to a greater extent than curcumin"}, {"measurement": "Solubility, buffer pH 1.2", "setting": "[2]; 37°C, without SLS, <LOQ refers to less than 0.05 μg/mL", "result": "<LOQ"}, {"measurement": "D0 x 10^3 (dose number), buffer pH 1.2", "setting": "[2]; [5]", "result": "74.16 x 10^3"}, {"measurement": "D0 x 10^3 (dose number), buffer pH 4.5", "setting": "[2]; [5]", "result": "5.80 x 10^3"}, {"measurement": "D0 x 10^3 (dose number), buffer pH 6.8", "setting": "[2]; [5]", "result": "10.89 x 10^3"}, {"measurement": "degradation during solubility test", "setting": "[2]; all media except buffer pH 1.2 with SLS", "result": "less than 10%"}, {"measurement": "degradation during solubility test", "setting": "[2]; buffer pH 1.2 with SLS, 37°C", "result": "more than 10%"}, {"measurement": "solubility at 1 h", "setting": "[2]; buffer pH 4.5 with 0.5% SLS, pH 4.5, aqueous with cosolvent or surfactant or cyclodextrin, 37°C + 0.5% SLS, read-out: Solubility, buffer pH 4.5", "result": "23.35 ± 0.18", "unit": "µg/mL"}, {"measurement": "solubility at 1 h", "setting": "[2]; buffer pH 4.5 without SLS, pH 4.5, aqueous buffer, 37°C, without SLS, read-out: Solubility, buffer pH 4.5", "result": "0.64 ± 0.51", "unit": "µg/mL"}, {"measurement": "solubility at 1 h", "setting": "[2]; buffer pH 6.8 with 0.5% SLS, pH 6.8, aqueous with cosolvent or surfactant or cyclodextrin, 37°C + 0.5% SLS, read-out: Solubility, buffer pH 6.8", "result": "148 ± 38.5", "unit": "µg/mL"}, {"measurement": "solubility at 1 h", "setting": "[2]; buffer pH 6.8 without SLS, pH 6.8, aqueous buffer, 37°C, without SLS, read-out: Solubility, buffer pH 6.8", "result": "0.34 ± 0.5", "unit": "µg/mL"}, {"measurement": "solubility at 1 h", "setting": "[2]; buffers pH 1.2, 4.5 and 6.8 without surfactant, aqueous buffer, pH 1.2-6.8, 37°C, without SLS, read-out: Solubility in buffers at all tested pH", "result": "< 1", "unit": "µg/mL"}, {"measurement": "D0 (dose number) in buffers at all tested pH", "setting": "[2]; pH 1.2-6.8, 37°C, without SLS", "result": "> 1"}, {"measurement": "logP", "setting": "[3]; n-octanol/buffer pH 4.5, pH 4.5, read-out: Log P (Log Po/buffer pH 4.5), n-octanol/buffer pH 4.5", "result": "3.43 ± 0.14"}, {"measurement": "logP", "setting": "[3]; n-octanol/water, read-out: Log P (Log Po/w), n-octanol/water", "result": "3.57 ± 0.19"}, {"measurement": "rate in human plasma lower than that in buffer pH 7.4", "setting": "[4]", "result": "approximately 8.7 fold"}, {"measurement": "k, pseudo-first-order hydrolysis", "setting": "[4]; human plasma", "result": "1.76 ± 0.30", "unit": "h⁻¹"}, {"measurement": "time for sequential conversion to CUR-1GE and curcumin in plasma", "setting": "[4]; human plasma", "result": "≤ 1", "unit": "h"}, {"measurement": "half-life at 5 μg/mL", "setting": "[4]; human plasma, read-out: t1/2, hydrolysis (converted)", "result": "24 ± 4.8", "unit": "min"}]}
